Measured values from US20240360165A1, “INHIBITORS OF CYCLIN DEPENDENT KINASE 7 (CDK7)” (Syros Pharmaceuticals, Inc., priority 2016, published 2024).
Where two headings read alike, the source gives them in different places.

Experiments:
[1] = target: T1, CDK12 (aa686-1082)/Cyclin K complex (Homo sapiens, UniProt Q9NYV4); assay: CDK12 inhibition assay (Caliper/LabChip EZ Reader kinase assay); type: biochemical; conditions: Table 1; CDK12 (aa686-1082)/Cyclin K 50 nM, ATP 2 mM, 3 hr at 27° C.
T1 construct: CDK12 (aa686-1082)/Cyclin K complex
T1 sequence (Q9NYV4 686-1082, species assumed): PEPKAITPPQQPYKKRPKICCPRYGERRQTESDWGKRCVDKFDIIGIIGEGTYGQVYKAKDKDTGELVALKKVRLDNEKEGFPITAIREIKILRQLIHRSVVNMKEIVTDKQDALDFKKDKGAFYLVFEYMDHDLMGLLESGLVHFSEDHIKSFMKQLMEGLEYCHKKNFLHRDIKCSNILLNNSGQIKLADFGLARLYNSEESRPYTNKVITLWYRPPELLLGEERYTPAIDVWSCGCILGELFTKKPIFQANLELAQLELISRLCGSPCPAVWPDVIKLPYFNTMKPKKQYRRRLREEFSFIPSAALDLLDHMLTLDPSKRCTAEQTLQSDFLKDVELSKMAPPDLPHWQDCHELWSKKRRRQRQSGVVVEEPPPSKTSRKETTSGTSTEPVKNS
T1 sequence (O75909 whole entry partner, species assumed, the tested form may be a part): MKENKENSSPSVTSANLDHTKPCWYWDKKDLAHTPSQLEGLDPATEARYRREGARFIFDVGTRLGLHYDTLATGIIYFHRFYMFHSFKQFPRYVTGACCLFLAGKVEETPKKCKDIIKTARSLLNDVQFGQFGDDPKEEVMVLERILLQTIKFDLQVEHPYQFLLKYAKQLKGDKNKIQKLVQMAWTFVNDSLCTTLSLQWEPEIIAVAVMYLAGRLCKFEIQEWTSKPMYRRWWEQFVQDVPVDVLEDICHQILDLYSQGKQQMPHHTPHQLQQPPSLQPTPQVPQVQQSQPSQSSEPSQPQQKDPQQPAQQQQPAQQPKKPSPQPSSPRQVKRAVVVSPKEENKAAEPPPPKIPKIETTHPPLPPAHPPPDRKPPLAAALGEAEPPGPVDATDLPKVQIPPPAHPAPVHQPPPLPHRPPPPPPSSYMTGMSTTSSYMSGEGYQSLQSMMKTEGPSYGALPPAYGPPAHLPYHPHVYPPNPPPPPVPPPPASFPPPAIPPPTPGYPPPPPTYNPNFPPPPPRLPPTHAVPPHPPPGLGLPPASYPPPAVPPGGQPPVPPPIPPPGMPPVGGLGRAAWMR

CDK2/Cyclin E1 complex = CDK2/Cyclin E1 complex (Homo sapiens, UniProt P24941); assay: CDK2 inhibition assay (Caliper/LabChip EZ Reader kinase assay); type: biochemical; conditions: Table 1; CDK2/Cyclin E1 0.5 nM, ATP 2 mM, 35 min at 27° C.
Method in brief: (§1)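 Activity read as fluorescent peptide conversion on a LabChip EZ Reader. For CDK2/Cyclin E1 (0.5 nM), substrate was 5-FAM-CDK7tide (2 μM) with 2 mM MgCl2; for CDK9/Cyclin T1 (8 nM), 5-FAM-CDK9tide (2 μM) with 10 mM MgCl2.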

HCC70 cells = assay: Inhibition of proliferation of HCC70 cells (CyQUANT Direct Cell Proliferation Assay, 72 hour); type: cell-based, human; conditions: read-out: Inhibition of Proliferation of HCC70 Cells (calculated IC50)
Experimental: HCC70 cells are a cell line derived from human triple negative breast cancer. […] Known CDK inhibitors dinaciclib or N-((1S,3R)-3-((5-chloro-4-(1H-indol-3-yl) pyrimidin-2-yl)amino)cyclohexyl)-5-((E)-4-(dimethylamino)but-2-enamido)picolinamide and triptolide were used as positive controls. […] The cells were cultured at 37° C. in a humidified chamber in the presence of 5% CO2. Proliferation assays were conducted over a 72 hour time period. CyQUANT® Direct Cell Proliferation Assay (Life Technologies, Chicago, IL USA) was used to assess the anti-proliferative effects of the compounds following manufacturer's directions and utilizing the reagents supplied with the CyQUANT® Direct Cell kit.

[2] = target: CDK7/Cyclin H/MAT1 complex (Homo sapiens, UniProt P50613); assay: CDK7 inhibition assay (Caliper/LabChip EZ Reader kinase assay); type: biochemical; conditions: Table 1; CDK7/Cyclin H/MAT1 6 nM, ATP 2 mM, 35 min at 27° C.
CDK7/Cyclin H/MAT1 complex, sequence (P50613 whole entry, species assumed): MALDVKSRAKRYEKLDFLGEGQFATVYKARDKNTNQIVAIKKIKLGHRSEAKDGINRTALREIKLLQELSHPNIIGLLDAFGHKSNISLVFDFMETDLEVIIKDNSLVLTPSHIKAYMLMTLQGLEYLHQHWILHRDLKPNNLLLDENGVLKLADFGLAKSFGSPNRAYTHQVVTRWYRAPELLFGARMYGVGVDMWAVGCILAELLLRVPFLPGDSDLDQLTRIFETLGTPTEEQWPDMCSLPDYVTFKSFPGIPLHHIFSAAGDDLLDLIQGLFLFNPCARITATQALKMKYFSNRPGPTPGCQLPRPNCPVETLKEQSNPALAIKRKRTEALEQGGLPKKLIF
CDK7/Cyclin H/MAT1 complex, sequence (P51946 whole entry partner, species assumed): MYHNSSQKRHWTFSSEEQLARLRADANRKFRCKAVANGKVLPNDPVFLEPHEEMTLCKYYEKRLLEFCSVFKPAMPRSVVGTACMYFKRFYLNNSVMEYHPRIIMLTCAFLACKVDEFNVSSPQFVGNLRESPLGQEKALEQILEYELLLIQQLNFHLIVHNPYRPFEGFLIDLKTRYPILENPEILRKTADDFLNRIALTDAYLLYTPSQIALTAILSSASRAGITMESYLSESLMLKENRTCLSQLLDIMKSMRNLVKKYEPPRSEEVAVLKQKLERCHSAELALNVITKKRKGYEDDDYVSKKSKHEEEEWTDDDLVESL
CDK7/Cyclin H/MAT1 complex, sequence (P51948 whole entry partner, species assumed): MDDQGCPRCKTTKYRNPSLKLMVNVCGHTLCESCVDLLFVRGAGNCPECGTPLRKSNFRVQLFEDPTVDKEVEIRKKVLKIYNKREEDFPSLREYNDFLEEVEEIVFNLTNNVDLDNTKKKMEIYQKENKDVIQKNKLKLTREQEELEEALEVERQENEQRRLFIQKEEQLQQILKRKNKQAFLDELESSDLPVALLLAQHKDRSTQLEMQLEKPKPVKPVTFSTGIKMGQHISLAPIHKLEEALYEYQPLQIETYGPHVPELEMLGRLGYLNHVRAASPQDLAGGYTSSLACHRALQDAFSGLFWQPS
Method in brief: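 A Perkin Elmer Caliper/LabChip EZ Reader (Waltham, MA) platform served as the basis for this CDK7 kinase inhibition assay. The work was carried out by Biortus Biosciences, located in Jiangyin, Jiangsu Province, P.R. of China. Each CDK studied had its own kinase assay, and compounds were evaluated for their ability to block CDK7 activity.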

CDK9/Cyclin T1 complex = CDK9/Cyclin T1 complex (Homo sapiens, UniProt P50750); assay: CDK9 inhibition assay (Caliper/LabChip EZ Reader kinase assay); type: biochemical; conditions: Table 1; CDK9/Cyclin T1 8 nM, ATP 2 mM, 15 min at 27° C.
CDK9/Cyclin T1 complex, sequence (P50750 whole entry, species assumed): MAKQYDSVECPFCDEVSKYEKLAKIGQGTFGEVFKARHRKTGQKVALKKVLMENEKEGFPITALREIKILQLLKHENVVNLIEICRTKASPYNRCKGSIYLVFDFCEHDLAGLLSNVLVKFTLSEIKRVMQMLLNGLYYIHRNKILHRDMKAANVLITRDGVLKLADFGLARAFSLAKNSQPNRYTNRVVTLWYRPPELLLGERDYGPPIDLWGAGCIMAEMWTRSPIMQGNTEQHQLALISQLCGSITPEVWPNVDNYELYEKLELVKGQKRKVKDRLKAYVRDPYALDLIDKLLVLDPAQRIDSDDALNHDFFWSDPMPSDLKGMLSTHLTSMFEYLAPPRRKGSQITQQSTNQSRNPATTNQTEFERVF
CDK9/Cyclin T1 complex, sequence (O60563 whole entry partner, species assumed): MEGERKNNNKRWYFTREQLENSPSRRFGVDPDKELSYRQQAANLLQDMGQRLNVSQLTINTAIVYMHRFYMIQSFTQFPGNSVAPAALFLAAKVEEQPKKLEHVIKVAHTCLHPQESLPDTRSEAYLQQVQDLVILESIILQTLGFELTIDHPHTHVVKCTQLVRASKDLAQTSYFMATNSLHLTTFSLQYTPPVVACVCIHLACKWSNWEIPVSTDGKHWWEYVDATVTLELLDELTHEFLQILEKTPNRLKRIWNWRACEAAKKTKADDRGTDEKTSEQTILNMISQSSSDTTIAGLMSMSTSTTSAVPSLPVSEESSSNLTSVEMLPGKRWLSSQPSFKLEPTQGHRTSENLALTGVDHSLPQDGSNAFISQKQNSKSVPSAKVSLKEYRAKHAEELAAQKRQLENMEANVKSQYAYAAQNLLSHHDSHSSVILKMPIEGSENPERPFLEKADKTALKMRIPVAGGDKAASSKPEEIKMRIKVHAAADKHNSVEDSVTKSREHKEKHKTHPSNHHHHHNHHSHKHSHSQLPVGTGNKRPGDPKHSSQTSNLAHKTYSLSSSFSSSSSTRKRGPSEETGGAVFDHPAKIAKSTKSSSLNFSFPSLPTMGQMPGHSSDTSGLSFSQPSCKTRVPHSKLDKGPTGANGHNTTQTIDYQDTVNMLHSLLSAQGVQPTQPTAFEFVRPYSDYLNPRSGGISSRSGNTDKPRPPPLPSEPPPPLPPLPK
Method in brief: as §1

A673 cells = assay: Inhibition of proliferation of A673 cells (CyQUANT, 72 hour); type: cell-based, human; conditions: A673 cells, 72 hour, CyQUANT, read-out: Inhibition of Proliferation of A673 Cells (calculated IC50)
Method in brief: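 Proliferation read-out by CyQUANT after a 72 h exposure, compounds spanning 4 μM–[…] in half-log steps. A673 cells cultured at 37° C under 5% CO2 in DMEM supplemented with 10% FBS plus 1 mM sodium pyruvate.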

Compound | IC50 [1] | IC50 (CDK2/Cyclin E1 complex) | IC50 (HCC70 cells; Homo sapiens, HCC70, 72 h) | IC50 [2] | IC50 (CDK9/Cyclin T1 complex) | IC50 (HCC70 cells) | IC50 (A673 cells) | IC50 (A673 cells; Homo sapiens, A673, 72 h)
CC1(O)CCN(C(=O)c2ccc3c(-c4nc(N[C@H]5CCCNC5)ncc4C(F)(F)F)c[nH]c3c2)CC1 [Compound 282, (4-hydroxy-4-methyl-1-piperidyl)-[3-[2-[[(3S)-3-piperidyl]amino]-5-(trifluoromethyl)pyrimidin-4-yl]-1H-indol-6-yl] methanone] | 200 to 5000 nM | 200 to 5000 nM | 100 to 1000 nM | < 20 nM | > 5000 nM | – | – | –
Cc1c(-c2ccc3c(-c4nc(N[C@H]5CCCNC5)ncc4C(F)(F)F)c[nH]c3c2)c[nH]c(=O)c1C#N [Compound 311, 4-methyl-2-oxo-5-[3-[2-[[(3S)-3-piperidyl]amino]-5-(trifluoromethyl)pyrimidin-4-yl]-1H-indol-6-yl]-1H-pyridine-3-carbonitrile] | 200 to 5000 nM | 200 to 5000 nM | 1000 to 5000 nM | < 20 nM | 200 to 5000 nM | – | – | –
CC1(C)CNC[C@@H](Nc2ncc(Cl)c(-c3c[nH]c4c(S(C)(=O)=O)c(C#N)ccc34)n2)C1 [Compound 382, 3-[5-chloro-2-[[(3S)-5,5-dimethyl-3-piperidyl]amino]pyrimidin-4-yl]-7-methylsulfonyl-1H-indole-6-carbonitrile] | 200 to 5000 nM | 200 to 5000 nM | < 100 nM | < 20 nM | 200 to 5000 nM | – | – | –
N#Cc1ccc2c(-c3nc(N[C@H]4CCCNC4)ncc3OC(F)F)c[nH]c2c1 [Compound 301, 3-[5-(difluoromethoxy)-2-[[(3S)-3-piperidyl]amino]pyrimidin-4-yl]-1H-indole-6-carbonitrile] | > 5000 nM | > 5000 nM | 1000 to 5000 nM | 20 to 200 nM | > 5000 nM | – | – | –
CNC(=O)c1ccc2c(-c3nc(N[C@H]4CCCNC4)ncc3C(F)(F)F)c[nH]c2n1 [Compound 297] | 200 to 5000 nM | 200 to 5000 nM | < 100 nM | < 20 nM | 200 to 5000 nM | – | – | –
N#Cc1ccc2c(-c3nc(N[C@@H]4CNCC[C@H]4F)ncc3C(F)(F)F)c[nH]c2c1 [Compound 351] | 200 to 5000 nM | 200 to 5000 nM | < 100 nM | < 20 nM | 200 to 5000 nM | – | – | –
OCc1cccc(-c2ccc3c(-c4nc(N[C@H]5CCCNC5)ncc4C(F)(F)F)c[nH]c3c2)n1 [Compound 316] | 200 to 5000 nM | 200 to 5000 nM | – | < 20 nM | > 5000 nM | 100 to 1000 nM | – | –
NS(=O)(=O)c1cccc(-c2ccc3c(-c4nc(N[C@H]5CCCNC5)ncc4C(F)(F)F)c[nH]c3c2)c1 [Compound 326] | 200 to 5000 nM | – | – | 20 to 200 nM | – | 100 to 1000 nM | – | –
FC(F)(F)c1cnc(N[C@H]2CCCNC2)nc1-c1c[nH]c2cc(-c3nccs3)ccc12 [Compound 332] | 200 to 5000 nM | 200 to 5000 nM | – | < 20 nM | 200 to 5000 nM | < 100 nM | – | –
FC(F)(F)c1cnc(NC2CCCNC2)nc1-c1c[nH]c2cc(C=Cc3ccccc3)ccc12 (stereo not shown) [Compound 317] | 200 to 5000 nM | – | 1000 to 5000 nM | 20 to 200 nM | – | – | – | –
CP(C)(=O)c1cccc2c(-c3nc(N[C@H]4CCCNC4)ncc3C(F)(F)F)c[nH]c12 [Compound 352, (S)-dimethyl(3-(2-(piperidin-3-ylamino)-5-(trifluoromethyl)pyrimidin-4-yl)-1H-indol-7-yl)phosphine oxide] | > 5000 nM | > 5000 nM | 1000 to 5000 nM | > 5000 nM | > 5000 nM | – | – | –
CC(C)S(=O)(=O)c1ccc2c(-c3nc(N[C@H]4CCCNC4)ncc3C(F)(F)F)c[nH]c2c1 [Compound 346, 4-(6-isopropylsulfonyl-1H-indol-3-yl)-N-[(3S)-3-piperidyl]-5-(trifluoromethyl) pyrimidin-2-amine] | 200 to 5000 nM | 200 to 5000 nM | 100 to 1000 nM | 20 to 200 nM | 200 to 5000 nM | – | – | –
COCn1cc(-c2nc(N[C@H]3CCCNC3)ncc2C(F)(F)F)c2cccc(C#N)c21 [Compound 295] | > 5000 nM | > 5000 nM | – | 20 to 200 nM | > 5000 nM | 1000 to 5000 nM | – | –
OCCc1cccc(-c2ccc3c(-c4nc(N[C@H]5CCCNC5)ncc4C(F)(F)F)c[nH]c3c2)c1 [Compound 324] | 200 to 5000 nM | – | – | 20 to 200 nM | – | 100 to 1000 nM | – | –
N#Cc1ccc2c(-c3nc(N[C@H]4CCCNC4)ncc3SC(F)F)c[nH]c2c1 [Compound 361, 3-[5-(difluoromethylsulfanyl)-2-[[(3S)-3-piperidyl]amino]pyrimidin-4-yl]-1H-indole-6-carbonitrile] | 200 to 5000 nM | > 5000 nM | 100 to 1000 nM | 20 to 200 nM | 200 to 5000 nM | – | – | –
FC(F)(F)c1cnc(N[C@H]2CCCNC2)nc1-c1c[nH]c2cc(-c3cccc4cnccc34)ccc12 [Compound 344] | 200 to 5000 nM | 200 to 5000 nM | – | 20 to 200 nM | > 5000 nM | 100 to 1000 nM | – | –
O=C(c1ccc2c(-c3nc(N[C@H]4CCCNC4)ncc3C(F)(F)F)c[nH]c2c1)N1C[C@H](O)C(F)(F)C1 [Compound 308, [(4S)-3,3-difluoro-4-hydroxy-pyrrolidin-1-yl]-[3-[2-[[(3S)-3-piperidyl]amino]-5-(trifluoromethyl)pyrimidin-4-yl]-1H-indol-6-yl]methanone] | 200 to 5000 nM | 200 to 5000 nM | 100 to 1000 nM | < 20 nM | 200 to 5000 nM | – | – | –
FC(F)(F)c1cnc(N[C@H]2CCCNC2)nc1-c1c[nH]c2cc(-c3ccc4ncsc4c3)ccc12 [Compound 343] | 200 to 5000 nM | 200 to 5000 nM | – | 20 to 200 nM | 200 to 5000 nM | 100 to 1000 nM | – | –
FC(F)(F)c1cc2[nH]cc(-c3ccc4c(-c5nc(N[C@H]6CCCNC6)ncc5C(F)(F)F)c[nH]c4c3)c2cn1 [Compound 319] | 200 to 5000 nM | – | – | 20 to 200 nM | – | 1000 to 5000 nM | – | –
Nc1nc2c(-c3ccc4c(-c5nc(N[C@H]6CCCNC6)ncc5C(F)(F)F)c[nH]c4c3)cccc2s1 [Compound 312] | 200 to 5000 nM | – | 100 to 1000 nM | 20 to 200 nM | – | – | – | –
N#Cc1cc(-c2ccc3c(-c4nc(N[C@H]5CCCNC5)ncc4C(F)(F)F)c[nH]c3c2)ccc1O [Compound 315] | 200 to 5000 nM | – | – | 20 to 200 nM | – | 1000 to 5000 nM | – | –
NS(=O)(=O)c1ccc(-c2ccc3c(-c4nc(N[C@H]5CCCNC5)ncc4C(F)(F)F)c[nH]c3c2)cc1 [Compound 331] | 200 to 5000 nM | – | – | 20 to 200 nM | – | 100 to 1000 nM | – | –
FC(F)(F)c1cnc(N[C@H]2CCCNC2)nc1-c1c[nH]c2cc(-c3ccc4cn[nH]c4c3)ccc12 [Compound 329] | 200 to 5000 nM | – | 100 to 1000 nM | 20 to 200 nM | – | – | – | –
CCOc1ccccc1-c1ccc2c(-c3nc(NC4CCCNC4)ncc3C(F)(F)F)c[nH]c2c1 (stereo not shown) [Compound 327] | 200 to 5000 nM | – | 100 to 1000 nM | 20 to 200 nM | – | – | – | –
Cn1cc(-c2ccc3c(-c4nc(N[C@H]5CCCNC5)ncc4C(F)(F)F)c[nH]c3c2)c2cnc(C(F)(F)F)cc21 [Compound 320] | 200 to 5000 nM | – | 1000 to 5000 nM | 20 to 200 nM | – | – | – | –
FC(F)(F)c1cnc(N[C@H]2CCCNC2)nc1-c1c[nH]c2cc(-c3ccc4ccncc4c3)ccc12 [Compound 325] | 200 to 5000 nM | – | – | 20 to 200 nM | – | 100 to 1000 nM | – | –
Cn1ncc2ccc(-c3ccc4c(-c5nc(N[C@H]6CCCNC6)ncc5C(F)(F)F)c[nH]c4c3)cc21 [Compound 337] | 200 to 5000 nM | – | – | 20 to 200 nM | – | 100 to 1000 nM | – | –
Nc1ncc2cccc(-c3ccc4c(-c5nc(N[C@H]6CCCNC6)ncc5C(F)(F)F)c[nH]c4c3)c2n1 [Compound 322] | 200 to 5000 nM | – | – | < 20 nM | – | 100 to 1000 nM | – | –
CNC(=O)C1CNCC(Nc2ncc(C(F)(F)F)c(-c3c[nH]c4ccccc34)n2)C1 (single isomer, unassigned) [Compound 253] | 20 to 200 nM | 20 to 200 nM | – | < 20 nM | 200 to 5000 nM | – | 20 to 200 nM | –
CC(C)C1CCC(Nc2ncc(C(F)(F)F)c(-c3c[nH]c4ccccc34)n2)CN1 (stereo not shown) [Compound 260] | 200 to 5000 nM | > 5000 nM | – | 200 to 5000 nM | > 5000 nM | – | – | 200 to 5000 nM
